Laboratory results published in the Kinase Knowledgebase extract (Sharma et al. 2016).
pIC50: −log10 of the molar value.

What was measured:
PIK3CA (human) [1] = biological target: PIK3CA (human) (UniProt P42336); experiment: Enzyme Assay
PIK3CD (Human) [2] = biological target: PIK3CD (Human) (UniProt O00329); experiment: Enzyme Assay
PIK3CG (human) [3] = biological target: PIK3CG (human) (UniProt P48736); experiment: Enzyme Assay
PIK3CA (human) [4] = biological target: PIK3CA (human) (UniProt P42336); experiment: Cell-Based Assay; settings: rat-1
PIK3CD (Human) [5] = biological target: PIK3CD (Human) (UniProt O00329); experiment: Cell-Based Assay; settings: rat-1
PIK3CG (human) [6] = biological target: PIK3CG (human) (UniProt P48736); experiment: Cell-Based Assay; settings: u937

Sequence of PIK3CA (human) (P42336 whole entry, looked up): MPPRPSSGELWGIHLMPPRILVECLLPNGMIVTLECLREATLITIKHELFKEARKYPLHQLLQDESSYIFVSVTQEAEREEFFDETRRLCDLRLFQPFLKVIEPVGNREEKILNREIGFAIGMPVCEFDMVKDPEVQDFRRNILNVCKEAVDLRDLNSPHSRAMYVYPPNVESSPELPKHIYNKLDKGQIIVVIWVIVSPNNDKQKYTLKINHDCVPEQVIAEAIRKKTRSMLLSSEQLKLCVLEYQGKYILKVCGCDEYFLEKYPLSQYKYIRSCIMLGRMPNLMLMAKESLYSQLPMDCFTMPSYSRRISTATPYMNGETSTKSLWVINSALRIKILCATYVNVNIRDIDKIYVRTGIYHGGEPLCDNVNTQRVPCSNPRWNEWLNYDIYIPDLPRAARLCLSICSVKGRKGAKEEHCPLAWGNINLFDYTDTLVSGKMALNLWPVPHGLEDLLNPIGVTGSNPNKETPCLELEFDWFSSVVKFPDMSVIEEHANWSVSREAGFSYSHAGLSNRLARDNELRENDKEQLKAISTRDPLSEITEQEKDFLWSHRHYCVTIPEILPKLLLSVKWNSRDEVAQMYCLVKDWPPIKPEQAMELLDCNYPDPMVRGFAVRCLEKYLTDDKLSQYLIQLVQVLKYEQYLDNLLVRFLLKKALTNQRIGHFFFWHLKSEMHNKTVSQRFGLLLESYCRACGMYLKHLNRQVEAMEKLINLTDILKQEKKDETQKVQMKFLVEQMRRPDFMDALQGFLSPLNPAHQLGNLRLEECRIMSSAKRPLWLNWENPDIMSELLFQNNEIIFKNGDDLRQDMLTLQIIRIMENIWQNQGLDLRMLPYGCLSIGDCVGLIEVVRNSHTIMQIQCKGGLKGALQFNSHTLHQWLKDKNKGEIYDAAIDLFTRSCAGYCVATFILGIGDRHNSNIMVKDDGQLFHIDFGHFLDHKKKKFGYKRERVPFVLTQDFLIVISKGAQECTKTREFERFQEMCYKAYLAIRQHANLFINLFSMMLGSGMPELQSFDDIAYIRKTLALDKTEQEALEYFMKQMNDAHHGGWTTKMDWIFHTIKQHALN
Sequence of PIK3CG (human) (P48736 whole entry, looked up): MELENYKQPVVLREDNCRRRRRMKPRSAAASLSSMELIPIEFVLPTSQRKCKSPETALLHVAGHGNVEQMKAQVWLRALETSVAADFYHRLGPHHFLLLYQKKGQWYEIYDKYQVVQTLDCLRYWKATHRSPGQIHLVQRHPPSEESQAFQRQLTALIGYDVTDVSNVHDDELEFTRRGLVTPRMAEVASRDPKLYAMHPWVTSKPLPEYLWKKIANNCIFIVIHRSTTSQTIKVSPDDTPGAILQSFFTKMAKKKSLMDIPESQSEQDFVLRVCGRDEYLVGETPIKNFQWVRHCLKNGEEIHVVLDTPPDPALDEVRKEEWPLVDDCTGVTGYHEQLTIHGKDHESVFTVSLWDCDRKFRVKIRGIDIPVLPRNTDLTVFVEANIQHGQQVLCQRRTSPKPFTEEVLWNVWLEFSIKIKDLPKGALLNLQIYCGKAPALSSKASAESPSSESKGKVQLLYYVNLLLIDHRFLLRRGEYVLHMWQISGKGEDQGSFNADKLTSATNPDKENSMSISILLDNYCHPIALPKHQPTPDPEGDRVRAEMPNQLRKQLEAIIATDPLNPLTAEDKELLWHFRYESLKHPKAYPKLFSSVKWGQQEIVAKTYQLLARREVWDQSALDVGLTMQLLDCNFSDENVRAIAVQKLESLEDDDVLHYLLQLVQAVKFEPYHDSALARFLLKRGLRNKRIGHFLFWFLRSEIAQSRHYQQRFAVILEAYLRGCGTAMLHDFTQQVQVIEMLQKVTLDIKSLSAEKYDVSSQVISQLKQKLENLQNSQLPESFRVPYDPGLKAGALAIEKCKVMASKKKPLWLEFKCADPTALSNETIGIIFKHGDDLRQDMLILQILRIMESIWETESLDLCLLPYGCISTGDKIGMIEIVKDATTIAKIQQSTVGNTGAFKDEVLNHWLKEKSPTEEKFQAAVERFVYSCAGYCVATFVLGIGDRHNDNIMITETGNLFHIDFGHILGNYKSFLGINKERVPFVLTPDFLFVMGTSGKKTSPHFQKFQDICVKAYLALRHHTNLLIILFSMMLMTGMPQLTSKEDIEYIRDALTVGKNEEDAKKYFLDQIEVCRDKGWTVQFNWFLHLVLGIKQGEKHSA
Sequence of PIK3CD (Human) (O00329 whole entry, looked up): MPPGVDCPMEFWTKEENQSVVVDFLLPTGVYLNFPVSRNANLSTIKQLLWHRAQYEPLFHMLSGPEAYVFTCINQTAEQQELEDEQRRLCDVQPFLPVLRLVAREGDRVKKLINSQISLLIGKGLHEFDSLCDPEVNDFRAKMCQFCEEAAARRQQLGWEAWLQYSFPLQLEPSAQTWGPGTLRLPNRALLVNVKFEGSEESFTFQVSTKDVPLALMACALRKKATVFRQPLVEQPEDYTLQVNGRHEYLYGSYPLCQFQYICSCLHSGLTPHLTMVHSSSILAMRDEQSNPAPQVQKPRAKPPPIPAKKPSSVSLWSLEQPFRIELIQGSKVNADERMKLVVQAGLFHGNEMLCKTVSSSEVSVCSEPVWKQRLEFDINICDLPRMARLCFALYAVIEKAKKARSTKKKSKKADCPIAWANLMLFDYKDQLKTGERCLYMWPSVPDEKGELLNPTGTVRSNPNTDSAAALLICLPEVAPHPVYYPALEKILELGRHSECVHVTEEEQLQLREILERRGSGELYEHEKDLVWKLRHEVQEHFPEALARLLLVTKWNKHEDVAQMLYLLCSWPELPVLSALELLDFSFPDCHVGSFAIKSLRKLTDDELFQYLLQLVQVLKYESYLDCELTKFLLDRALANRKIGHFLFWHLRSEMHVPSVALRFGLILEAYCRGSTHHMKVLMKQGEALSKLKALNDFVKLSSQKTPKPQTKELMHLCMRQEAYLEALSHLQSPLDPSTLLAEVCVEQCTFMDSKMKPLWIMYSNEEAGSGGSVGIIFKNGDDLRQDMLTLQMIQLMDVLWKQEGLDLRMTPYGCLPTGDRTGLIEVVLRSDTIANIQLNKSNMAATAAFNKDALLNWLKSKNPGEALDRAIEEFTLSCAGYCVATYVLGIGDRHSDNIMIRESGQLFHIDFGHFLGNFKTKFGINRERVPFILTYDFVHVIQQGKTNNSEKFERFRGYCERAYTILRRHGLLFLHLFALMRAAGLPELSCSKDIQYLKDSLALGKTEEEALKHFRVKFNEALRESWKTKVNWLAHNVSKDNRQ

SMILES | pIC50 (PIK3CA (human) [1]) | pIC50 (PIK3CD (Human) [2]) | pIC50 (PIK3CG (human) [3]) | pIC50 (PIK3CA (human) [4]) | pIC50 (PIK3CD (Human) [5]) | pIC50 (PIK3CG (human) [6])
CO[C@H]1C[C@@H](c2nc3cccc(C(F)(F)F)c3c(=O)n2N2CCOCC2)N(c2ncnc(N)c2C#N)C1 | < 5.00 | 7.28 | 5.72 | < 5.00 | 6.93 | 5.72
Nc1nc(N2CCC[C@H]2c2nc3cccc(C(F)(F)F)c3c(=O)n2-c2cncc(F)c2)c2nc[nH]c2n1 | < 5.00 | 6.80 | 6.49 | < 5.00 | 6.79 | 6.49
Nc1nc(N2C[C@@H](F)C[C@H]2c2nc3cccc(C(F)(F)F)c3c(=O)n2-c2cccnc2)c2nc[nH]c2n1 | 5.36 | 7.19 | 7.32 | < 5.00 | 6.62 | 7.12
CO[C@H]1C[C@@H](c2nc3cccc(Cl)c3c(=O)n2-c2ccccc2)N(c2nc(N)nn3ccnc23)C1 | 5.14 | 6.85 | 7.11 | < 5.00 | 6.69 | 6.10
Nc1nc(N2C[C@@H](O)C[C@H]2c2nc3cccc(C(F)(F)F)c3c(=O)n2-c2ccccc2)c2nccn2n1 | 5.48 | 7.59 | 7.51 | < 5.00 | 7.05 | 7.51
N#Cc1c(N)ncnc1N1CCC[C@H]1c1nc2cccc(C(F)(F)F)c2c(=O)n1-c1cccnc1 | 5.57 | 7.12 | 6.02 | 5.23 | 7.01 | 6.03
Nc1nc(N2CCC[C@H]2c2nc3cccc(Cl)c3c(=O)n2N2CCOCC2)c2nc[nH]c2n1 | 5.34 | 7.38 | 7.20 | < 5.00 | 7.19 | 5.74
Nc1nc(N2CCC[C@H]2c2nc3cccc(Cl)c3c(=O)n2N2CCOCC2)c2nccn2n1 | 5.59 | 7.66 | 6.72 | < 5.00 | 6.89 | 6.40
Cn1cnc2c(N3CCC[C@H]3c3nc4cccc(Cl)c4c(=O)n3-c3ccccc3)nc(N)nc21 | 5.43 | 7.28 | 6.52 | < 5.00 | 6.96 | 6.67

Compounds with a higher pIC50 (PIK3CA (human) [1]), results first:

pIC50 (PIK3CA (human) [1]) | pIC50 (PIK3CD (Human) [2]) | pIC50 (PIK3CG (human) [3]) | pIC50 (PIK3CA (human) [4]) | pIC50 (PIK3CD (Human) [5]) | pIC50 (PIK3CG (human) [6]) | SMILES
5.66 | 8.00 | 6.43 | 5.57 | 8.15 | 6.48 | Cc1c(F)ccc2nc([C@@H]3C[C@H](O)CN3c3ncnc(N)c3C#N)n(-c3ccccc3)c(=O)c12
6.00 | 7.96 | 7.57 | 5.26 | 7.37 | 6.45 | CO[C@H]1C[C@@H](c2nc3cccc(Cl)c3c(=O)n2-c2ccccc2)N(c2ncnc3[nH]cnc23)C1
6.04 | 7.85 | 7.38 | 5.47 | 7.85 | 7.38 | Cc1nc(N)nc(N2C[C@@H](F)C[C@H]2c2nc3cccc(C(F)(F)F)c3c(=O)n2-c2cccc(F)c2)c1C#N
6.23 | 8.00 | 7.33 | 5.69 | 7.92 | 7.66 | Cc1nc(N)nc(N2C[C@@H](F)C[C@H]2c2nc3cccc(C(F)(F)F)c3c(=O)n2-c2ccccc2)c1C#N
6.29 | 7.96 | 7.57 | 5.12 | 7.06 | 7.42 | Nc1nc(N2C[C@@H](O)C[C@H]2c2nc3cccc(C(F)(F)F)c3c(=O)n2-c2ccccc2)c2nc[nH]c2n1
6.44 | 7.92 | 7.74 | 5.98 | 8.40 | 8.30 | Cc1nc(N)nc(N2C[C@@H](O)C[C@H]2c2nc3cccc(Cl)c3c(=O)n2-c2ccccc2)c1C#N
6.57 | 7.85 | 7.62 | 5.96 | 8.15 | 7.74 | Cc1nc(N)nc(N2C[C@@H](O)C[C@H]2c2nc3ccc(F)c(C)c3c(=O)n2-c2ccccc2)c1C#N
